The text below walks through data of patent publication US20240300902A1, “NOVEL TRANSGLUTAMINASE 2 INHIBITOR AND USE THEREOF” (MD BIOLAB CO., LTD., priority 2021, published 2024).

One data set deals with ACHN cells. Kind of data set: Preclinical xenograft tumor model (ACHN, BALB/c nude mice). The class given is in vivo. To be noted: 1 mg/kg or 10 mg/kg PO once daily, 5 days per week. The protocol: Six-week-old male-specific, pathogen-free BALB/c nude mice (n=20) were purchased from the central lab (Animal Inc., Seoul, Korea). Each mouse was injected subcutaneously with ACHN cells (5.0×10^6 cells/each). When tumors reached an appropriate size (100 to 150 mm^3 for ACHN), mice were randomly selected and classified into 4 groups (n=4 to 5) according to the volume and weight of the tumor: The control group was untreated; the streptonigrin-treated group was administered in an amount of 0.2 mg/kg; and the LDD3959-treated group was administered in an amount of 1 mg/kg or 10 mg/kg. The streptonigrin and LDD3959 were orally administered to each treatment group, once daily for 5 days per week. For tumor identification, the mice were euthanized with 7.5% CO2 and the tumors were recovered for immunohistochemical analysis. The tumor volume was calculated according to the following equation: V=(A×B×B)/2 where V is the volume (mm^3), A is the long diameter (mm), and B is the short diameter (mm). The experiment was reviewed and approved by the Institutional Animal Care and Use Committee (IACUC) of the National Cancer Center Research Institute (NCCRI). […]

The test system of a further data set is MDA-MB-231 cells. Kind of data set: Protein expression level change in TNBC breast cancer cells according to treatment time, western blot. To be noted: MDA-MB-231, 24, 48 and 72 hours. It is filed as cell-based. Background: In western blotting, separated proteins are transferred to a membrane and probed.
In data set [1] the test system is CAKI-1 renal cancer cells. Kind of data set: Antitumor effect in in vivo renal cancerous tumors, CAKI-1 xenograft, intraperitoneal administration. On the set-up: species or system mice. The protocol: To examine the antitumor effect of LDD3959, CanN.Cg-Foxn1nu/CrljOri mice were used as experimental animals. The mice were xenografted with ACHN renal cancer cells or CAKI-1 renal cancer cells to induce tumors. The ACHN renal cancer cell-transplanted group was orally administered with LDD3959, and the CAKI-1-transplanted group was intraperitoneally administered with LDD3959. In this test, the oral administration was performed daily and the intraperitoneal administration was performed twice a week.

For a further data set, the system named is a total of 8 tumors. Description: OncoPanel assay conducted by Eurofins. The class given is cell-based. The protocol: The OncoPanel™ assay conducted by Eurofins confirmed the antitumor efficacy of LDD3959 in a total of 8 tumors at concentrations of 10 μM or lower.
Data set [2] can be described thus: Toxicity by 3-week DRF oral administration. The class given is in vivo, ICR mice. The following applies: once a day for 3 weeks, 500 to 2000 mg/kg. The method, then:
LDD3959 was administered once a day for 3 weeks at each concentration (in the range of 500 to 2000 mg/kg), adverse events during the course of administration were checked, and the subjects were sacrificed the next day after the end of administration to perform weight measurement, hematological analysis, and biochemical analysis for each organ. In addition, the same experiment was performed on five ICR female mice and five ICR male mice to identify gender-dependent differences.

A short description of data set [3]: Toxicity by single oral administration. The following applies: 500 to 2000 mg/kg. It is filed as in vivo, ICR mice. The method, then:
LDD3959 was orally administered once for each concentration in the range of 500 to 2000 mg/kg, and adverse events (body weight changes, feed intake changes, general appearance changes) were checked for 2 weeks. After 2 weeks of administration, the mice were sacrificed. Then, the mice underwent hematological examination and measurement of weight change of each organ thereof. In addition, the same experiment was performed on five ICR female mice and five ICR male mice to identify gender-dependent differences.

Data set [4] concerns MDA-MB231 breast cancer cells. Kind of data set: Cell viability in breast cancer cell lines according to treatment time. It is filed as cell-based. The following applies: MDA-MB231, 24, 48 and 72 hours. The method, then: Breast cancer cells (50,000 cells/well, 100 μl) were cultured in 96-well microplates, and after 24 hours, LDD3959 was added to each well in various concentrations, using a serum-free cell culture medium. In each well, a reaction was performed at 37° C. in the presence of 5% CO2 for 2 hours.
Next, the existing culture medium was replaced with a culture medium containing 10% FSB, and 24, 48, and 72 hours of reactions were performed. After the completion of each reaction, the exiting culture medium was removed, a culture medium containing a water soluble tetrazolium (WST) salt was added, the plate was allowed to react at 37° C. in the presence of 5% CO2 for a duration in the range of 1 hour to 3 hours, and the absorbance was measured at 450 nm.

Data set [5] has as its system MDA-MB231 breast cancer cells. Description: Antitumor effects in in vivo breast cancerous tumors, MDA-MB231 xenograft. The arrangement: species or system mice. The method, then: To examine the antitumor effect of LDD3959, CanN.Cg-Foxn1nu/CrljOri mice were used as experimental animals. The mice were xenografted with MDA-MB231 breast cancer cells to induce tumors. The MDA-MB231 breast cancer cell-transplanted group was divided into two groups: an oral administration group and an intraperitoneal administration group. In this test, the oral administration was performed daily and the intraperitoneal administration was performed twice a week.

A further data set has as its system p53. Description: P53 rescue test using western blotting. It is filed as cell-based. To be noted: low to high concentration, cancer cell lines. The protocol:
Whole cell lysates were prepared using a radioimmunoprecipitation assay (RIPA) buffer (150 mM sodium chloride, 1.0% (w/v) IGEPAL® CA-630 (NP-40), 0.5% (w/v) sodium deoxycholate, 0.1% (w/v) sodium dodecyl sulfate (SDS), a protease inhibitor cocktail, and 50 mM Tris-HCl (pH 8.0) containing a phosphatase inhibitor cocktail. Protein assays were performed through Bradford protein assay (Thermo Scientific, Waltham, MA, USA) to normalize protein expression. The proteins were resolved by SDS-PAGE and transferred to polyvinylidene difluoride (PVDF) membranes (Merck Millipore, Burlington, MA, USA). The membranes were blocked with 5% (w/v) BSA for 1 hour at room temperature and incubated overnight at 4° C. with labeled antibodies. Membranes were washed in TBS-T for 1 hour at room temperature and incubated together with a horseradish peroxidase (HRP)-bound secondary antibody for 1 hour at room temperature. Finally, the membranes were washed in TBS-T for 1 hour at room temperature and developed with enhanced chemiluminescence.

The structures appear in SMILES notation. Where only a bound is given, the exact number is not on record here.

With `O=C1C(Cl)=C(Cl)C(=O)c2[nH]c(-c3ccc(Br)c(F)c3)nc21` [LDD3959, 2-(4-bromo-3-fluorophenyl)-5,6-dichloro-1H-benzo[d]imidazole-4,7-dione], the “tumor volume increase rate” value in the data set with ACHN cells is “tumor volume increase rate decreased as the LDD3959 dose increased”. Further, the AKT/mTOR signals result with MDA-MB-231 cells is reported as “AKT/mTOR signals were inhibited”. Moreover, the NFκB complexes result with MDA-MB-231 cells is “NFκB complexes were inhibited”. Also, the “tumor growth inhibitory effect” value in [1] (CAKI-1 xenograft, intraperitoneal administration twice a week) is “concentration-dependent tumor growth inhibitory effects”. In data set [1] (intraperitoneal administration group), the hematological examination entry is “no abnormal findings”. In addition, the “concentration with antitumor efficacy” value in the data set with a total of 8 tumors was ≤ 10 µM. Also, the adverse events entry in data set [2] is listed as “no specific adverse events occurred”. For the same molecule, the “hematological and biochemical tests” value in data set [2] was “no probable adverse events”. For the same molecule, the deaths entry is recorded as “no deaths of the subjects occurred” in data set [2] (female and male ICR mice); “no deaths of the subjects occurred” in [3] (2 weeks, female and male ICR mice). Besides, the “adverse responses in blood” value in data set [3] (after 2 weeks) is listed as “no specific adverse responses occurred in blood”. In addition, the “apoptosis level according to time” value in [4] was “exhibited a low apoptosis level at the initial stage, but the apoptosis level increased”. The antitumor effect result in data set [5] (intraperitoneal administration twice a week) and in data set [5] (oral administration daily) was “concentration-dependent antitumor effects” each time. Besides, in the data set with p53, the “p53 rescue effect (Western blot band of p53)” value is recorded as “dose-dependent p53 rescue effects”.
